This is an account of results in ChEMBL document CHEMBL1123898, “Antitumor imidazotetrazines. 14. Synthesis and antitumor activity of 6- and 8-substituted imidazo[5,1-d]-1,2,3,5-tetrazinones and 8-substituted pyrazolo[5,1-d]-1,2,3,5-tetrazinones” (1987).

For assay [1], the system named is L1210. In words: Antitumor activity was assessed against L1210 tumors in B6D2F1 mouse by inoculation of 10e5 tumor cells through intraperitoneal route and number of Survivors to duration was reported at 40 mg/kg peroral dose; 4/10. The settings on record: route oral.
Assay [2] concerns L1210. Put plainly: Antitumor activity was assessed against L1210 tumors in B6D2F1 mouse by inoculation of 10e5 tumor cells through intravenous route and mean death of animals (treated/control) was reported at 10 mg/kg peroral dose. The format is functional. The settings on record: route oral.
The nature of assay [3]: Antitumor activity was assessed against TLX5 tumors in CBA/CA mouse by inoculation of 2 x 10e5 tumor cells through subcutaneous route and mean death of animals (treated/control) was reported at 80 mg/kg dose. The format is functional.
The test system of assay [4] is L1210. Put plainly: Antitumor activity was assessed against L1210 tumors in B6D2F1 mouse by inoculation of 10e5 tumor cells through intravenous route and mean death of animals (treated/control) was reported at 20 mg/kg peroral dose. The class given is functional. The settings on record: route oral.
The test system of assay [5] is L1210. Put plainly: Antitumor activity was assessed against L1210 tumors in B6D2F1 mouse by inoculation of 10e5 tumor cells through intraperitoneal route and number of Survivors to duration was reported at 20 mg/kg peroral dose; 8/10. The settings on record: route oral.
Assay [6] can be described thus: Antitumor activity was assessed against TLX5 tumors in CBA/CA mouse by inoculation of 2 x 10e5 tumor cells through subcutaneous route and mean death of animals (treated/control) was reported at 40 mg/kg dose. The class given is functional.
The nature of assay [7]: Antitumor activity was assessed against TLX5 tumors in CBA/CA mouse by inoculation of 2 x 10e5 tumor cells through subcutaneous route and number of Survivors to duration was reported at 80 mg/kg iv dose; 3/5.
Assay [8] can be described thus: Antitumor activity was assessed against TLX5 tumors in CBA/CA mouse by inoculation of 2 x 10e5 tumor cells through subcutaneous route and mean death of animals (treated/control) was reported at 160 mg/kg dose. The format is functional.
Assay [9] can be described thus: Antitumor activity was assessed against TLX5 tumors in CBA/CA mouse by inoculation of 2 x 10e5 tumor cells through subcutaneous route and mean death of animals (treated/control) was reported at 20 mg/kg dose. The class given is functional.
The nature of assay [10]: Antitumor activity was assessed against TLX5 tumors in CBA/CA mouse by inoculation of 2 x 10e5 tumor cells through subcutaneous route and number of Survivors to duration was reported at 40 mg/kg iv dose; 5/5.
For assay [11], the system named is L1210. Put plainly: Antitumor activity was assessed against L1210 tumors in B6D2F1 mouse by inoculation of 10e5 tumor cells through intravenous route and mean death of animals (treated/control) was reported at 40 mg/kg peroral dose. The class given is functional. The settings on record: route oral.
In assay [12] the test system is L1210. Put plainly: Antitumor activity was assessed against L1210 tumors in B6D2F1 mouse by inoculation of 10e5 tumor cells through iv route and mean death of animals (treated/control) was reported at 100 mg/kg po dose. The class given is functional.
Assay [13] has as its system L1210. In words: Antitumor activity was assessed against L1210 tumors in B6D2F1 mouse by inoculation of 10e5 tumor cells through iv route and mean death of animals (treated/control) was reported at 50 mg/kg po dose. The class given is functional.
In assay [14] the test system is L1210. In words: Antitumor activity was assessed against L1210 tumors in B6D2F1 mouse by inoculation of 10e5 tumor cells through iv route and mean death of animals (treated/control) was reported at 200 mg/kg po dose. The class given is functional.
Assay [15] concerns L1210. In words: Antitumor activity was assessed against L1210 tumors in B6D2F1 mouse by inoculation of 10e5 tumor cells through iv route and number of survivors to duration was reported at 200 mg/kg po dose; 2/7. The class given is functional.
A short description of assay [16]: Antitumor activity was assessed against TLX5 tumors in CBA/CA mouse by inoculation of 2 x 10e5 tumor cells through subcutaneous route and mean death of animals (treated/control) was reported at 80 mg/kg iv dose. The format is functional.
Assay [17] is described as follows: Antitumor activity was assessed against TLX5 tumors in CBA/CA mouse by inoculation of 2 x 10e5 tumor cells through subcutaneous route and mean death of animals (treated/control) was reported at 160 mg/kg iv dose. The format is functional.
The test system of assay [18] is L1210. In words: Antitumor activity was assessed against L1210 tumors in B6D2F1 mouse by inoculation of 10e5 tumor cells through intraperitoneal route and mean death of animals (treated/control) was reported at 50 mg/kg peroral dose. The settings on record: route oral. The format is functional.
Assay [19] relates to L1210. Put plainly: Antitumor activity was assessed against L1210 tumors in B6D2F1 mouse by inoculation of 10e5 tumor cells through intraperitoneal route and mean death of animals (treated/control) was reported at 200 mg/kg peroral dose. The format is functional. The settings on record: route oral.
Assay [20] in a line: Antitumor activity was assessed against TLX5 tumors in CBA/CA mouse by inoculation of 2 x 10e5 tumor cells through subcutaneous route and mean death of animals (treated/control) was reported at 320 mg/kg iv dose. The class given is functional.
Assay [21] concerns L1210. Put plainly: Antitumor activity was assessed against L1210 tumors in B6D2F1 mouse by inoculation of 10e5 tumor cells through intraperitoneal route and mean death of animals (treated/control) was reported at 100 mg/kg peroral dose. The settings on record: route oral. The format is functional.
Assay [22] can be described thus: Antitumor activity was assessed against TLX5 tumors in CBA/CA mouse by inoculation of 2 x 10e5 tumor cells through sc route and number of Survivors to duration was reported at 320 mg/kg iv dose; 1/5. The class given is functional.
Assay [23] is described as follows: Antitumor activity was assessed against TLX5 tumors in CBA/CA mouse by inoculation of 2 x 10e5 tumor cells through subcutaneous route and mean death of animals (treated/control) was reported at 640 mg/kg iv dose. The format is functional.
Assay [24] is described as follows: Antitumor activity was assessed against TLX5 tumors in CBA/CA mouse by inoculation of 2 x 10e5 tumor cells through subcutaneous route and mean death of animals (treated/control) was reported at 40 mg/kg iv dose. The format is functional.

Broadly, the T/C is the result in the treated group divided by that in the control group, in per cent. In the case of `CN(C)C(=O)c1ncn2c(=O)n(CCCl)nnc12`, the Survivors in assay [1] came out at 4; in assay [5], 8; in assay [7], 3; in assay [10], 5. In addition, the T/C in assay [2] is 197%; in assay [3] it was >358%; in assay [4], >290%; in [6], >508%; in [8], 68%; in [9], 161%. Moreover, the T/C in assay [11] was >235%.

As to `CCCc1nc(C(N)=O)c2nnn(CCCl)c(=O)n12`, the T/C is 186% in assay [12], 151% in [13] and >295% in assay [14]. This compound showed a Survivors in [15] of 2.

`O=C(c1ncn2c(=O)n(CCCl)nnc12)N1CCCCC1`: the T/C in assay [16] was 102%; in assay [17] it was 120%; in assay [18], 100%; in assay [19], 171%; in assay [20], >234%; in assay [21], 108%. Further, the T/C in assay [23] is given as 25%; in assay [24] it was 98%. Further, the Survivors in assay [22] is recorded as 1.
